# Experimental data as given in US8557800B2, “Sphingosine kinase inhibitors” (Apogee Biotechnology Corporation, priority 2005, dated 2013).
# Experiments:
# [1] = test system: MCF-7 human breast adenocarcinoma cells; experiment: Cytotoxicity, SRB binding assay; assay type: cell-based; conditions: MCF7, inhibition of cell proliferation, 48 h, read-out: MCF-7 IC50
# Experimental: To further assess the biological efficacies of the Compounds in intact cells, each Compound was evaluated for cytotoxicity using human cancer cell lines. These experiments followed methods that have been extensively used. Cell lines tested included MCF-7 human breast adenocarcinoma cells and MCF-10A non-transformed human breast epithelial cells. The indicated cell lines were treated with varying doses of the test Compound for 48 h. Cell survival was then determined using the SRB binding assay (Skehan et al., 1990, J Natl Cancer Inst 82: 1107), and the concentration of compound that inhibited proliferation by 50% (the IC50) was calculated. Values (in μM) represent the mean±sd for replicate trials.
# [2] = test system: recombinant human SK; experiment: Inhibition of recombinant human SK, LC/MS/MS assay; assay type: biochemical; conditions: 6 μg/ml compound
# Experimental: SK activity is measured by incubation of the recombinant SK with [^3H]sphingosine and 1 mM ATP under defined conditions, followed by extraction of the assay mixture with chloroform:methanol under basic conditions. […] Radioactivity in aliquots of the aqueous phase is then quantified as a measure of [^3H]S1P formation.
# In an alternate assay procedure, the recombinant human SK was incubated with unlabeled sphingosine and ATP as described above. After 30 minutes, the reactions were terminated by the addition of acetonitrile to directly extract the newly synthesized S1P. The amount of S1P in the samples is then quantified as follows. C17 base D-erythro-sphingosine and C17 SIP are used as internal standards for sphingosine and S1P, respectively. […] The lipids are then fractionation by High-Performance Liquid Chromatography using a C8-reverse phase column eluted with 1 mM methanolic ammonium formate/2 mM aqueous ammonium formate. […] Calibration curves are generated by plotting the peak area ratios of the synthetic standards for each sphingolipid, and used to determine the normalized amounts of sphingosine and S1P in the samples.
# Each Compound of this invention was tested for its ability to inhibit recombinant SK using the LC/MS/MS assay described above.
Compound,IC50 [1],Recombinant SK (% inhibition) [2]
"O=C(NC1CC1)C12CC3CC(C1)CC(c1ccc(Cl)cc1)(C3)C2 [Compound 2, 3-(4-Chloro-phenyl)-adamantane-1-carboxylic acid cyclopropylamide]",20 µM,0%
"CCSCCNC(=O)C12CC3CC(C1)CC(c1ccc(Cl)cc1)(C3)C2 [Compound 3, 3-(4-Chloro-phenyl)-adamantane-1-carboxylic acid (2-ethylsulfanyl-ethyl)-amide]",18 µM,6%
"CC(=O)Oc1ccc(NC(=O)C23CC4CC(C2)CC(c2ccc(Cl)cc2)(C4)C3)cc1 [Compound 7, Acetic acid 4-{[3-(4-chloro-phenyl)-adamantane-1-carbonyl]-amino}-phenyl ester]",3 µM,100%
"CSc1ccc(CNC(=O)C23CC4CC(C2)CC(c2ccc(Cl)cc2)(C4)C3)cc1 [Compound 14, 3-(4-Chloro-phenyl)-adamantane-1-carboxylic acid 4-methylsulfanyl-benzylamide]",36 µM,19%
"O=C(NCc1ccc(C(F)(F)F)cc1)C12CC3CC(C1)CC(c1ccc(Cl)cc1)(C3)C2 [Compound 16, 3-(4-Chloro-phenyl)-adamantane-1-carboxylic acid 4-trifluoromethyl-benzylamide]",17 µM,8%
"O=C(NCc1cc(C(F)(F)F)cc(C(F)(F)F)c1)C12CC3CC(C1)CC(c1ccc(Cl)cc1)(C3)C2 [Compound 17, 3-(4-Chloro-phenyl)-adamantane-1-carboxylic acid 3,5-bis-trifluoromethyl-benzylamide]",17 µM,56%
"O=C(NCc1cc(F)cc(C(F)(F)F)c1)C12CC3CC(C1)CC(c1ccc(Cl)cc1)(C3)C2 [Compound 18, 3-(4-Chloro-phenyl)-adamantane-1-carboxylic acid 3-fluoro-5-trifluoromethyl-benzylamide]",19 µM,0%
"O=C(NCc1cc(F)cc(F)c1)C12CC3CC(C1)CC(c1ccc(Cl)cc1)(C3)C2 [Compound 20, 3-(4-Chloro-phenyl)-adamantane-1-carboxylic acid 3,5-difluoro-benzylamide]",33 µM,0%
"O=C(NCc1ccc(F)c(F)c1)C12CC3CC(C1)CC(c1ccc(Cl)cc1)(C3)C2 [Compound 21, 3-(4-Chloro-phenyl)-adamantane-1-carboxylic acid 3,4-difluoro-benzylamide]",27 µM,65%
"O=C(NCc1cc(F)c(F)c(F)c1)C12CC3CC(C1)CC(c1ccc(Cl)cc1)(C3)C2 [Compound 22, 3-(4-Chloro-phenyl)-adamantane-1-carboxylic acid 3,4,5-trifluoro-benzylamide]",18 µM,56%
"O=C(NCc1ccc(F)c(Cl)c1)C12CC3CC(C1)CC(c1ccc(Cl)cc1)(C3)C2 [Compound 23, 3-(4-Chloro-phenyl)-adamantane-1-carboxylic acid 3-chloro-4-fluoro-benzylamide]",23 µM,0%
"O=C(NCc1ccc(F)c(C(F)(F)F)c1)C12CC3CC(C1)CC(c1ccc(Cl)cc1)(C3)C2 [Compound 24, 3-(4-Chloro-phenyl)-adamantane-1-carboxylic acid 4-fluoro-3-trifluoromethyl-benzylamide]",17 µM,20%
"O=C(NCc1ccc(F)cc1Cl)C12CC3CC(C1)CC(c1ccc(Cl)cc1)(C3)C2 [Compound 25, 3-(4-Chloro-phenyl)-adamantane-1-carboxylic acid 2-chloro-4-fluoro-benzylamide]",87 µM,47%
"O=C(NCc1ccc(Cl)c(C(F)(F)F)c1)C12CC3CC(C1)CC(c1ccc(Cl)cc1)(C3)C2 [Compound 26, 3-(4-Chloro-phenyl)-adamantane-1-carboxylic acid 4-chloro-3-trifluoromethyl-benzylamide]",19 µM,36%
"NCc1c(Cl)c(Cl)c(Cl)c(CNC(=O)C23CC4CC(C2)CC(c2ccc(Cl)cc2)(C4)C3)c1Cl [Compound 27, 3-(4-Chloro-phenyl)-adamantane-1-carboxylic acid 3-aminomethyl-2,4,5,6-tetrachloro-benzylamide]",8 µM,50%
"CC(NC(=O)C12CC3CC(C1)CC(c1ccc(Cl)cc1)(C3)C2)c1ccc(Cl)cc1 (centres unmarked) [Compound 28, 3-(4-Chloro-phenyl)-adamantane-1-carboxylic acid [1-(4-chloro-phenyl)-ethyl]-amide]",64 µM,6%
"CS(=O)(=O)c1ccc(CNC(=O)C23CC4CC(C2)CC(c2ccc(Cl)cc2)(C4)C3)cc1 [Compound 30, 3-(4-Chloro-phenyl)-adamantane-1-carboxylic acid 4-methanesulfonyl-benzylamide]",14 µM,1%
"CN(C)c1ccc(CNC(=O)C23CC4CC(C2)CC(c2ccc(Cl)cc2)(C4)C3)cc1 [Compound 31, 3-(4-Chloro-phenyl)-adamantane-1-carboxylic acid 4-dimethylamino-benzylamide]",74 µM,74%
"O=C(NCc1ccc(OC(F)(F)F)cc1)C12CC3CC(C1)CC(c1ccc(Cl)cc1)(C3)C2 [Compound 32, 3-(4-Chloro-phenyl)-adamantane-1-carboxylic acid 4-trifluoromethoxy-benzylamide]",24 µM,17%
"O=C(NCc1cccc(OC(F)(F)F)c1)C12CC3CC(C1)CC(c1ccc(Cl)cc1)(C3)C2 [Compound 33, 3-(4-Chloro-phenyl)-adamantane-1-carboxylic acid 3-trifluoromethoxy-benzylamide]",30 µM,10%
"O=C(NCc1ccc(Oc2ccccc2)cc1)C12CC3CC(C1)CC(c1ccc(Cl)cc1)(C3)C2 [Compound 34, 3-(4-Chloro-phenyl)-adamantane-1-carboxylic acid 4-phenoxy-benzylamide]",> 106 µM,0%
"O=C(NCc1ccc(O)c(O)c1)C12CC3CC(CC(C3)C1)C2 [Compound 35, Adamantane-1-carboxylic acid 3,4-dihydroxy-benzylamide]",19 µM,87%
"COc1ccc(CCNC(=O)C23CC4CC(C2)CC(c2ccc(Cl)cc2)(C4)C3)cc1Br [Compound 42, 3-(4-Chloro-phenyl)-adamantane-1-carboxylic acid [2-(3-bromo-4-methoxy-phenyl)-ethyl]-amide]",> 100 µM,5%
"O=C(NCCc1ccc(O)c(O)c1)C12CC3CC(CC(C3)C1)C2 [Compound 43, Adamantane-1-carboxylic acid [2-(3,4-dihydroxy-phenyl)-ethyl]-amide]",27 µM,0%
"O=C(NCCc1ccc2c(c1)OCO2)C12CC3CC(C1)CC(c1ccc(Cl)cc1)(C3)C2 [Compound 45, 3-(4-Chloro-phenyl)-adamantane-1-carboxylic acid (2-benzo[1,3]dioxol-5-yl-ethyl)-amide]",17 µM,64%
